From patent publication US20140350081A1, “INSECT G-COUPLED RECEPTORS USEFUL AS TARGETS FOR INSECTICIDES AND COMPOUNDS AND REAGENTS IDENTIFIED USING THE SAME” (priority 2011, published 2014)
Read-outs that look alike come from different tables or passages of the source.

Experiments:
[1] = molecular target: Isdop1 (Ixodes scapularis, UniProt A0ACM8FJJ0); assay: cAMP accumulation in HEK 293 cells transiently expressing Isdop1; type: cell-based; details: for Stimulatory response (fold-over-basal) Isdop1: 10 μM biogenic amine, 300 nM propranolol, cAMP accumulation, mean±standard error; for intracellular cAMP compared to basal, Isdop1: 10 μM agonist, transient expression
[2] = molecular target: T1, Isdop2 (Ixodes scapularis, UniProt A0ACM8DGL0); assay: cAMP accumulation in HEK 293 cells transiently expressing Isdop2; type: cell-based; details: for Stimulatory response (fold-over-basal) Isdop2: 10 μM biogenic amine, 300 nM propranolol, cAMP accumulation, mean±standard error; for increase in cAMP, Isdop2: 10 μM agonist, transient expression
T1 sequence (A0ACM8DGL0 entry or part of it): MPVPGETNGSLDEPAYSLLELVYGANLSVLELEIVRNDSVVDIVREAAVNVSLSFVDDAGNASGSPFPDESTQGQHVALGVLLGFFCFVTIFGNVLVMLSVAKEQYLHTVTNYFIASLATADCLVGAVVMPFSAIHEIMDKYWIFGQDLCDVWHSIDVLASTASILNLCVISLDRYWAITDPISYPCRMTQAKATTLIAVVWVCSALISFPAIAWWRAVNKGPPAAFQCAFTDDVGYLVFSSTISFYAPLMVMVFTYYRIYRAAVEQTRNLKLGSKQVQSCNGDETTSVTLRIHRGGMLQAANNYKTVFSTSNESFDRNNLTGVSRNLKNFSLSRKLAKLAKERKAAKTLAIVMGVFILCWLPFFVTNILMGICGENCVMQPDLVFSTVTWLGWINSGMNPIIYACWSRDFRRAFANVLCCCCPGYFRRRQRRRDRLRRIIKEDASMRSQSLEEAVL

[3] = molecular target: AaDOP1 (Aedes aegypti, UniProt H6D5H1); assay: CRELuc reporter dose-response in HEK293 cells stably expressing AaDOP1; type: cell-based; details: HEK293 cells stably expressing CRELuc reporter and AaDOP1
AaDOP1, sequence (H6D5H1 entry or part of it): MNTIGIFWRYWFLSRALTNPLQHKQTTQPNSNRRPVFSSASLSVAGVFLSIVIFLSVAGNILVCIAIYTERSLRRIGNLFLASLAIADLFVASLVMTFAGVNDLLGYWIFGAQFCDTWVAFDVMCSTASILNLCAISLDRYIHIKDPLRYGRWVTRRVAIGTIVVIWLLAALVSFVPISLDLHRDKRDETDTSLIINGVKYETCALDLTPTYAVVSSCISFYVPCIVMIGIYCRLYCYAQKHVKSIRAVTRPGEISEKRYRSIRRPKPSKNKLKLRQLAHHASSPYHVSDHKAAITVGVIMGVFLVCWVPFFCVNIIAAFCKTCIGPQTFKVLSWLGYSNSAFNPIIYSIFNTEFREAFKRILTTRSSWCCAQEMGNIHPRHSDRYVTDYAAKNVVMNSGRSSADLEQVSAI

[4] = molecular target: T2, AaDOP2 (Aedes aegypti, UniProt H6D5H2); assay: CRELuc reporter dose-response in HEK293 cells stably expressing AaDOP2; type: cell-based; details: HEK293 cells stably expressing CRELuc reporter and AaDOP2, read-out: EC50 values AaDOP2
T2 sequence (H6D5H2 entry or part of it): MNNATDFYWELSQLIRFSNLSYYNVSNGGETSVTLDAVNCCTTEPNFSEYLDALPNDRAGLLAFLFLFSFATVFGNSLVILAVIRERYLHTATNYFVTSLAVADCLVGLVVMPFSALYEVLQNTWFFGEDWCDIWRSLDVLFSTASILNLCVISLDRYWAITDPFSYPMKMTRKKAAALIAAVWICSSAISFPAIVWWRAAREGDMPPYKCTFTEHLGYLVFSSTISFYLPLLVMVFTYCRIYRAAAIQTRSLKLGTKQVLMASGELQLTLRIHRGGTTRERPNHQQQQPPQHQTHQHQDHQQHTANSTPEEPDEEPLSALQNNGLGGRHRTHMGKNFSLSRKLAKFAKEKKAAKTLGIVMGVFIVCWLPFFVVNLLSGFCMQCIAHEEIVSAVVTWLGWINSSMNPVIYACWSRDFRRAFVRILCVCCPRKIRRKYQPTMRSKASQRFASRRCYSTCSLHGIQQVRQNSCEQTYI

[5] = molecular target: T2, AaDOP2; assay: AaDOP2 agonist screen against the LOPAC1280 library; type: cell-based; details: 10 μM compound; percent of response to 1 μM dihydrexidine
[6] = molecular target: T1, Isdop2; assay: cell-based; details: read-out: % Inhibition (of response to dopamine), Isdop2 screen
[7] = tested on: Ae. aegypti L3 larvae; assay: Ae. aegypti L3 concentration response and time course assays; type: in vivo, Aedes aegypti
Procedure: Briefly, chemistries were diluted to appropriate concentration in water and added to the wells of 24-well plates containing 5 L3 stage Ae. aegypti larvae to achieve a final concentration of 400, 200, 100, 50 and 25 μM in 1 ml sterile RO water. Chemistries were tested in quadruplicate at each concentration. […] Results reported here represent a minimum of three independent CRC experiments (i.e., n=3).

[8] = tested on: Ae. aegypti L3 larvae; details: 400 μM, three independent experiments
[9] = molecular target: T2, AaDOP2; assay: HTRF cAMP accumulation concentration response assay (Cisbio Dynamic 2); type: cell-based; details: AaDOP2 expressing cells in the presence of dopamine; No Inhibition = <10% inhibition at 3 μM test compound; read-out: IC50 ± S.E.M. (nM), HTRF cAMP assay
[10] = tested on: Ae. aegypti L3 larvae; assay: whole plant or invertebrate; details: Aedes aegypti
[11] = tested on: adult male Blatella germanica; assay: Cockroach assay of Table 16 (title contact assay, text feeding assay); type: in vivo; details: 200 mM compound
Description: (§1) A series of whole organism bioassays was developed to further evaluate the toxicity of chemistries to a range of agricultural, veterinary and public health pests and non-target insects (Tables 12 and 13). These assays are designed to rapidly explore the biological activity spectrum of chemistries as well as to facilitate initial investigations of the mode of action of insecticidal compounds. Briefly, assays were developed for the German cockroach (Blatella germanica, urban pest), termite (Reticulitermes flavipes; urban pest), lone star tick (Amblyomma americana; veterinary and public health pest), soybean aphid (Aphis glycines, agricultural pest) and honeybee (Apis mellifera; beneficial, non-target insect). The assays were designed to test the toxicity and speed of kill of multiple chemistries on contact. Each of these assays was performed as a single point dose experiment in triplicate using either topical application of compound to the ventral thorax ([…]; 50-80 μg effective dose depending on compound) as is the case for our cockroach and honeybee assays, or 10 second immersion in a solution of the compound diluted in water or DMSO:EtOH to a final concentration of 100 μM. The assays were conducted in 24-well plate format with mortality assessment following incubation at 22° C. as described above. Commercial insecticides were incorporated in these assays to provide a positive control and permit initial comparative analyses. Lead chemistries identified in our in vivo screen have been evaluated in the cockroach and termite assays.

[12] = tested on: adult male Blatella germanica; assay: Cockroach contact assay (topical application); type: in vivo; details: 200 mM compound
Description: as §1

[13] = ≧10 μM = lacks intrinsic activity

## NCCc1c[nH]cn1 [Histamine]
[1]
  Stimulatory response (fold-over-basal) Isdop1: 1.02 ± 0.10 fold-over-basal
[2]
  Stimulatory response (fold-over-basal) Isdop2: 1.55 ± 0.28 fold-over-basal

## Oc1cc2c(cc1O)C(c1ccccc1)CNCC2 (stereo not shown) [SKF 38393]
[3]
  EC50: 310 ± 46 nM
[1]
  intracellular cAMP compared to basal, Isdop1: modest, yet significant increases
[2]
  increase in cAMP, Isdop2: ca. two-fold-over-basal
[4]; [13]
  EC50: ≥ 10000 nM
[5]
  % of DHX: < 10%

## Oc1cc2c(c(Cl)c1O)CCNCC2c1ccccc1 (stereo not shown) [SKF 81297]
[3]
  EC50: 24 ± 7 nM
[1]
  intracellular cAMP compared to basal, Isdop1: modest, yet significant increases
[2]
  increase in cAMP, Isdop2: ca. two-fold-over-basal
[4]; [13]
  EC50: ≥ 10000 nM
[5]
  % of DHX: 38%

## CN(C)CCCN1c2ccccc2Sc2ccc(Cl)cc21 [Chlorpromazine]
[6]
  inhibition at 10 µM: 92%
[7]; 400 μM, L3 larval time course assay
  LT50: 178 min
[7]; Aedes aegypti
  LC50: 92000 nM
[8]
  Toxicity to Aedes aegypti larvae (mortality) 24 hours: 100%
[9]
  IC50: 17 nM
[10]; 0.5 h, read-out: mortality of the mosquito population within 30 minutes, 400 μM, L3 larvae
  mortality at 400 µM: > 70%
[10]; 0.5 h, read-out: percent mortality 0.5 hr, 400 uM, L3 larvae, value for this scoring time
  mortality at 400 µM: 70%
[10]; 1 h, read-out: percent mortality 1 hr, 400 uM, L3 larvae, per scoring time
  mortality at 400 µM: 0%
[10]; 2 h, read-out: percent mortality 2 hr, 400 uM, L3 larvae, per scoring time
  mortality at 400 µM: 10%
[10]; 3 h, read-out: percent mortality 3 hr, 400 uM, L3 larvae, per scoring time
  mortality at 400 µM: 0%
[10]; 4 h, read-out: percent mortality 4 hr, 400 uM, L3 larvae, per scoring time
  mortality at 400 µM: 0%
[10]; 24 h, read-out: percent mortality 24 hr, 400 uM, L3 larvae, per scoring time
  mortality at 400 µM: 10%
[10]; 48 h, read-out: Toxicity to Aedes aegypti larvae (mortality) 48 hours, 400 μM, L3 larvae, three independent experiments
  mortality at 400 µM: 100%
[10]; 48 h, read-out: percent mortality 48 hr, 400 uM, L3 larvae, per scoring time
  mortality at 400 µM: 0%
[10]; 72 h, read-out: Cumulative % Mortality (72 hrs), 400 uM, L3 larvae
  mortality at 400 µM: 100%
[10]; 72 h, read-out: Toxicity to Aedes aegypti larvae (mortality) 72 hours, 400 μM, L3 larvae, three independent experiments
  mortality at 400 µM: 100%
[10]; 72 h, read-out: percent mortality 72 hr, 400 uM, L3 larvae, per scoring time
  mortality at 400 µM: 0%
[11]
  % Mortality 24 hrs: 7%
  % Mortality 48 hrs: 17%
  % Mortality 72 hrs: 17%
  % Mortality 120 hrs: 20%
[12]
  % Mortality 24 hrs: 3%
  % Mortality 48 hrs: 10%
  % Mortality 72 hrs: 10%
  % Mortality 120 hrs: 14%
  % Mortality 240 hrs: 17%

## NCCc1ccc(O)cc1 [Tyramine]
[1]
  Stimulatory response (fold-over-basal) Isdop1: 1.34 ± 0.11 fold-over-basal
[2]
  Stimulatory response (fold-over-basal) Isdop2: 1.27 ± 0.22 fold-over-basal

## Oc1cc2c(cc1O)[C@H]1c3ccccc3CN[C@@H]1CC2 (racemic) [Dihydrexidine]
[3]
  EC50: 6.9 ± 1.5 nM
[4]
  EC50: 290 ± 54 nM
[5]
  % of DHX: 116%
